Measurements from patent US10829520B2, “Beta-hairpin peptidomimetics” (POLYPHOR AG, priority 2015, dated 2020).
Where two headings read alike, the source gives them in different places. Where a SMILES comes first, the peptide text is derived from it. Bridges are numbered along the chain shown (N, C = ends). Roman numbers before positions name the chains, in order. [ ]: non-standard residue; d: D form. Tle = CC(C)(C)[C@H](N)C(=O)O; dDab = NCC[C@@H](N)C(=O)O; hSer = N[C@@H](CCO)C(=O)O; Nle = CCCC[C@H](N)C(=O)O; Orn = NCCC[C@H](N)C(=O)O; Dab = NCC[C@H](N)C(=O)O; dAze = O=C(O)[C@H]1CCN1

Tests used:
Format in all cases: cell-based
[1] = system: Acinetobacter baumannii 872842
[2] = system: Acinetobacter baumannii DSM 30008
How it was run: (§1)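 Antibacterial activity is measured as MIC (μg/mL) by standard CLSI microdilution. Inocula of about 10^6 CFU/mL in MH-II broth meet two-fold peptide dilutions in medium with 0.002% Polysorbate 80, and growth is scored visually after 18-20 hours at 35° C.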

Escherichia coli 926415 = system: Escherichia coli 926415
[3] = system: Escherichia coli ATCC 25922
How it was run: as §1

[4] = system: Klebsiella pneumoniae 968733
[5] = system: Klebsiella pneumoniae SSI #3010
How it was run: as §1

[6] = system: Pseudomonas aeruginosa ATCC 27853
How it was run: as §1

[7] = system: human red blood cells (hRBC); assay: Hemolysis of human red blood cells
How it was run: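 Fresh human red blood cells are washed in PBS, then shaken with peptide (100 μg/mL) at 37° C. for 1 h, final erythrocyte density about 0.9×10^9 cells/mL. After centrifugation, diluted supernatants are read at 540 nm against buffer (0%) and Triton X-100 (100%) lysis controls.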

[8] = clinical isolate, Mueller-Hinton II broth, P-80 0.002% present

| Acinetobacter baumannii 872842 MIC [1]; 872842 [mg/L] | Acinetobacter baumannii DSM 30008 MIC ([2]; DSM 30008) [mg/L] | Escherichia coli 926415 MIC (Escherichia coli 926415; 926415) [mg/L] | Escherichia coli ATCC 25922 MIC ([3]; ATCC 25922) [mg/L] | Klebsiella pneumoniae 968733 MIC [4]; 968733 [mg/L] | Klebsiella pneumoniae SSI #3010 MIC ([5]; SSI #3010) [mg/L] | Pseudomonas aeruginosa ATCC 27853 MIC ([6]; ATCC 27853) [mg/L] | SMILES | Hemolysis at 100 μg/mL ([7]; red cells of human, 1 h, 100) [%] | Acinetobacter baumannii 872842 MIC [1, 8] [mg/L] | Acinetobacter baumannii DSM 30008 MIC ([2]; Mueller-Hinton II broth) [mg/L] | Escherichia coli 926415 MIC (Escherichia coli 926415; [8]) [mg/L] | Escherichia coli ATCC 25922 MIC ([3]; Mueller-Hinton II broth) [mg/L] | Klebsiella pneumoniae 968733 MIC [4, 8] [mg/L] | Klebsiella pneumoniae SSI #3010 MIC ([5]; Mueller-Hinton II broth) [mg/L] | Pseudomonas aeruginosa ATCC 27853 MIC ([6]; Mueller-Hinton II broth) [mg/L] | Hemolysis at 100 μg/mL ([7]; 100 μg/mL, 20% hRBC, 1 h at 37° C.) [%] | Hemolysis at 100 μg/mL ([7]; red cells of human, 1 h, 100 μg/mL) [%] |
| --- | --- | --- | --- | --- | --- | --- | --- | --- | --- | --- | --- | --- | --- | --- | --- | --- | --- |
| 1 | 0.25 | 0.25 | 0.125 | 1 | 0.25 | 0.5 | CC(C)C[C@@H]1NC(=O)[C@@H](CC(C)C)NC(=O)[C@H](CCN)NC(=O)[C@@H](NC(=O)[C@H](CCN)NC(=O)[C@@H](NC(=O)[C@H](CCN)NC(=O)CC[C@@H]2NC(=O)[C@H](CCN)NC(=O)[C@H](Cc3ccc(O)cc3)NC(=O)[C@H](CO)NC(=O)[C@H](CC(C)C)NC(=O)[C@@H]3CCCN3C(=O)[C@H]3CCCN3C(=O)[C@H](Cc3ccc(O)cc3)NC(=O)[C@H]([C@@H](C)O)NC(=O)[C@H](C(C)C)NC(=O)[C@H](CCN)NC(=O)[C@H](Cc3c[nH]c4ccccc34)NC(=O)[C@H](CCN)NC(=O)[C@@H](CCN)NC2=O)[C@@H](C)O)CCNC(=O)[C@H]([C@@H](C)O)NC(=O)[C@H](CCN)NC(=O)[C@H](CCN)NC1=O [Ex. 96] (I: cyclo(W[Dab]VTY[dP]PLSY[Dab]E[dDab][Dab]) / II: [Dab]T[Dab][Dab][Dab][dL]L[Dab][Dab]T; amide I:12-II:N; lactam II:4-II:C) | 4 |  |  |  |  |  |  |  |  |  |
|  |  |  |  |  |  |  | CC(C)C[C@@H]1NC(=O)[C@@H](CC(C)C)NC(=O)[C@H](CCN)NC(=O)[C@@H](NC(=O)[C@H](CCN)NC(=O)[C@@H](NC(=O)[C@H](CCN)NC(=O)CC[C@@H]2NC(=O)[C@@H]3CSSC[C@H](NC(=O)[C@H](Cc4c[nH]c5ccccc45)NC(=O)[C@H](CCN)NC(=O)[C@@H](CCN)NC2=O)C(=O)N[C@@H](C(C)(C)C)C(=O)N[C@@H]([C@@H](C)O)C(=O)N[C@@H](CO)C(=O)N2CCC[C@@H]2C(=O)N2CCC[C@H]2C(=O)N[C@@H](CC(C)C)C(=O)N[C@@H](CO)C(=O)N[C@@H](Cc2ccc(O)cc2)C(=O)N3)[C@@H](C)O)CCNC(=O)[C@H]([C@@H](C)O)NC(=O)[C@H](CCN)NC(=O)[C@H](CCN)NC1=O [Ex. 98] (I: cyclo(LSYCE[dDab][Dab]WC[Tle]TS[dP]P) / II: [Dab]T[Dab][Dab][Dab][dL]L[Dab][Dab]T; disulfide I:4-I:9; amide I:5-II:N; lactam II:4-II:C) |  | 0.25 | 0.0625 | 0.5 | 0.125 | 0.5 | 0.125 | 0.25 | 2 |  |
| 0.25 | 0.25 | 0.25 | 0.125 | 0.5 | 0.25 | 0.5 | CC(C)C[C@@H]1NC(=O)[C@H](CCN)NC(=O)[C@@H](CCN)NC(=O)[C@H](CCC(=O)N[C@@H](CCN)C(=O)N[C@H](C(=O)N[C@@H](CCN)C(=O)N[C@H]2CCNC(=O)[C@H]([C@@H](C)O)NC(=O)[C@H](CCN)NC(=O)[C@H](CCN)NC(=O)[C@H](CC(C)C)NC(=O)[C@@H](CC(C)C)NC(=O)[C@H](CCN)NC2=O)[C@@H](C)O)NC(=O)[C@H](CCN)NC(=O)[C@H](Cc2ccc(O)cc2)NC(=O)[C@H](CO)NC(=O)[C@H](CC(C)C)NC(=O)[C@@H]2CCCN2C(=O)[C@H]2CCCN2C(=O)[C@H](Cc2ccc(O)cc2)NC(=O)[C@H]([C@@H](C)O)NC(=O)[C@H](C(C)C)NC(=O)[C@H](CCN)NC1=O [Ex. 99] (I: cyclo(LSY[Dab]E[dDab][Dab]L[Dab]VTY[dP]P) / II: [Dab]T[Dab][Dab][Dab][dL]L[Dab][Dab]T; amide I:5-II:N; lactam II:4-II:C) | 4 |  |  |  |  |  |  |  |  |  |
| 0.25 | 0.0625 | 0.5 | 0.0625 | 2 | 0.125 | 0.125 | CC(C)C[C@@H]1NC(=O)[C@@H](CC(C)C)NC(=O)[C@H](CCN)NC(=O)[C@@H](NC(=O)[C@H](CCN)NC(=O)[C@@H](NC(=O)[C@H](CCN)NC(=O)CC[C@@H]2NC(=O)[C@H]([C@@H](C)O)NC(=O)[C@H](Cc3ccc(O)cc3)NC(=O)[C@H]([C@@H](C)O)NC(=O)[C@H](C(C)C)NC(=O)[C@@H]3CCCN3C(=O)[C@H]3CCN3C(=O)[C@H]([C@@H](C)O)NC(=O)[C@H](C)NC(=O)[C@H](C(C)(C)C)NC(=O)[C@H]([C@@H](C)O)NC(=O)[C@H](Cc3c[nH]c4ccccc34)NC(=O)[C@H]([C@@H](C)O)NC(=O)[C@@H]([C@H](C)O)NC2=O)[C@@H](C)O)CCNC(=O)[C@H]([C@@H](C)O)NC(=O)[C@H](CCN)NC(=O)[C@H](CCN)NC1=O [Ex. 100] (I: cyclo(AT[dAze]PVTYTE[dT]TWT[Tle]) / II: [Dab]T[Dab][Dab][Dab][dL]L[Dab][Dab]T; amide I:9-II:N; lactam II:4-II:C) | 2 |  |  |  |  |  |  |  |  |  |
| 0.5 | 0.0625 | 0.25 | 0.0625 | 0.5 | 0.125 | 0.125 | CC(C)C[C@@H]1NC(=O)[C@@H](CC(C)C)NC(=O)[C@H](CCN)NC(=O)[C@@H](NC(=O)[C@H](CCN)NC(=O)[C@@H](NC(=O)[C@H](CCN)NC(=O)CC[C@@H]2NC(=O)[C@H](CCO)NC(=O)[C@H](Cc3ccc(O)cc3)NC(=O)[C@H]([C@@H](C)O)NC(=O)[C@H](C(C)C)NC(=O)[C@@H]3CCCN3C(=O)[C@@H](C)NC(=O)[C@H](CO)NC(=O)[C@H](C)NC(=O)[C@H](C(C)(C)C)NC(=O)[C@H](CCO)NC(=O)[C@H](Cc3c[nH]c4ccccc34)NC(=O)[C@H](CCO)NC(=O)[C@@H](CCN)NC2=O)[C@@H](C)O)CCNC(=O)[C@H]([C@@H](C)O)NC(=O)[C@H](CCN)NC(=O)[C@H](CCN)NC1=O [Ex. 102] (I: cyclo(AS[dA]PVTY[hSer]E[dDab][hSer]W[hSer][Tle]) / II: [Dab]T[Dab][Dab][Dab][dL]L[Dab][Dab]T; amide I:9-II:N; lactam II:4-II:C) | <1 |  |  |  |  |  |  |  |  |  |
| 0.25 | 0.0625 | 0.125 | 0.625 | 0.0625 | 0.0625 | 0.125 | CC(C)C[C@@H]1NC(=O)[C@@H](CC(C)C)NC(=O)[C@H](CCN)NC(=O)[C@@H](NC(=O)[C@H](CCN)NC(=O)[C@@H](NC(=O)[C@H](CCN)NC(=O)CC[C@@H]2NC(=O)[C@H](CCN)NC(=O)[C@H](Cc3ccc(O)cc3)NC(=O)[C@H]([C@@H](C)O)NC(=O)[C@H](C(C)C)NC(=O)[C@@H]3CCCN3C(=O)[C@@H](C)NC(=O)[C@H](CO)NC(=O)[C@H](C)NC(=O)[C@H](C(C)(C)C)NC(=O)[C@H](CCO)NC(=O)[C@H](Cc3c[nH]c4ccccc34)NC(=O)[C@H](CCO)NC(=O)[C@@H](CCN)NC2=O)[C@@H](C)O)CCNC(=O)[C@H]([C@@H](C)O)NC(=O)[C@H](CCN)NC(=O)[C@H](CCN)NC1=O [Ex. 103] (I: cyclo([dDab][hSer]W[hSer][Tle]AS[dA]PVTY[Dab]E) / II: [Dab]T[Dab][Dab][Dab][dL]L[Dab][Dab]T; amide I:14-II:N; lactam II:4-II:C) | 1 |  |  |  |  |  |  |  |  |  |

| SMILES | Acinetobacter baumannii 872842 MIC [1]; 872842 [mg/L] | Acinetobacter baumannii DSM 30008 MIC ([2]; DSM 30008) [mg/L] | Escherichia coli 926415 MIC (Escherichia coli 926415; 926415) [mg/L] | Escherichia coli ATCC 25922 MIC ([3]; ATCC 25922) [mg/L] | Klebsiella pneumoniae 968733 MIC [4]; 968733 [mg/L] | Klebsiella pneumoniae SSI #3010 MIC ([5]; SSI #3010) [mg/L] | Pseudomonas aeruginosa ATCC 27853 MIC ([6]; ATCC 27853) [mg/L] | Hemolysis at 100 μg/mL ([7]; red cells of human, 1 h, 100) [%] | Acinetobacter baumannii 872842 MIC [1, 8] [mg/L] | Acinetobacter baumannii DSM 30008 MIC ([2]; Mueller-Hinton II broth) [mg/L] | Escherichia coli 926415 MIC (Escherichia coli 926415; [8]) [mg/L] | Escherichia coli ATCC 25922 MIC ([3]; Mueller-Hinton II broth) [mg/L] | Klebsiella pneumoniae 968733 MIC [4, 8] [mg/L] | Klebsiella pneumoniae SSI #3010 MIC ([5]; Mueller-Hinton II broth) [mg/L] | Pseudomonas aeruginosa ATCC 27853 MIC ([6]; Mueller-Hinton II broth) [mg/L] | Hemolysis at 100 μg/mL ([7]; 100 μg/mL, 20% hRBC, 1 h at 37° C.) [%] | Hemolysis at 100 μg/mL ([7]; red cells of human, 1 h, 100 μg/mL) [%] |
| --- | --- | --- | --- | --- | --- | --- | --- | --- | --- | --- | --- | --- | --- | --- | --- | --- | --- |
| CCCC[C@@H]1NC(=O)[C@@H]2CCCN2C(=O)[C@H]2CCCN2C(=O)[C@H](CO)NC(=O)[C@H](CO)NC(=O)[C@H](C(C)(C)C)NC(=O)[C@@H](NC(=O)[C@@H](N)Cc2c[nH]c3ccccc23)CSSC[C@@H](C(=O)N[C@@H](CCCN)C(=O)N[C@H](C)C(=O)N[C@H](CCN)C(=O)N[C@H]2CCNC(=O)[C@H]([C@@H](C)O)NC(=O)[C@H](CCN)NC(=O)[C@H](CCN)NC(=O)[C@H](CC(C)C)NC(=O)[C@@H](Cc3ccccc3)NC(=O)[C@H](CCN)NC2=O)NC(=O)[C@H](Cc2ccc(O)cc2)NC(=O)[C@H](CO)NC1=O [Ex. 104] (H-WC[Tle]SS[dP]P[Nle]SYC[Orn][dA][dDab][Dab][Dab][dF]L[Dab][Dab]T; disulfide 2-11; lactam 15-C) | 0.25 | 0.5 | 0.25 | 0.25 | 1 | 0.5 | 1 |  |  |  |  |  |  |  |  |  | 3 |
